Reference: PMC12274840 (The Journal of Biological Chemistry, 2025)
Where two headings read alike, the source gives them in different places.

Key:
[1] = test system: E. coli KA797 cells carrying BlaC position 105 library; type: cell-based, Escherichia coli; settings: for Fi AVG (average fitness): relative to WT Ile; for Fi AVG (average fitness) / Fi MEM AVG: average of replicates
[2] = test system: E. coli KA797 cells carrying NmcA position 105 library; type: cell-based

C[C@@H](O)[C@H]1C(=O)N2C(C(=O)O)=C(S[C@@H]3CN[C@H](C(=O)N(C)C)C3)[C@H](C)[C@H]12 [meropenem]
Fi MEM 2 ([1]; AA 105 Ser, meropenem, replicate 2): -1.824 | Fi MEM 3 ([1]; AA 105 Ser, meropenem, replicate 3): -1.144 | Fi AVG (average fitness) ([1]; AA 105 Thr (BlaC I105T)): -0.015 | Significance (Fi MEM AVG) ([1]; AA 105 Thr, meropenem): - | Fi MEM AVG ([1]; AA 105 Thr, meropenem): -1.775 | Fi MEM 1 ([1]; AA 105 Thr, meropenem, replicate 1): -1.838 | Fi MEM 2 ([1]; AA 105 Thr, meropenem, replicate 2): -2.332 | Fi MEM 3 ([1]; AA 105 Thr, meropenem, replicate 3): -1.155 | Fi MEM AVG ([1]; AA 105 Trp, meropenem): -0.487 | Fi MEM 1 ([1]; AA 105 Trp, meropenem, replicate 1): 0.050 | Fi MEM 2 ([1]; AA 105 Trp, meropenem, replicate 2): -1.403 | Fi MEM 3 ([1]; AA 105 Trp, meropenem, replicate 3): -0.109 | Fi AVG (average fitness) ([1]; AA 105 Tyr (BlaC I105Y)): -0.070 | Fi MEM AVG ([1]; AA 105 Tyr, meropenem): -0.204 | Fi MEM 1 ([1]; AA 105 Tyr, meropenem, replicate 1): 0.312 | Fi MEM 2 ([1]; AA 105 Tyr, meropenem, replicate 2): -1.109 | Fi MEM 3 ([1]; AA 105 Tyr, meropenem, replicate 3): 0.185 | Fi AVG (average fitness) ([1]; AA 105 Val (BlaC I105V)): -0.016 | Fi MEM AVG ([1]; AA 105 Val, meropenem): -0.855 | Fi MEM 1 ([1]; AA 105 Val, meropenem, replicate 1): 0.059 | Fi MEM 2 ([1]; AA 105 Val, meropenem, replicate 2): -2.574 | Fi MEM 3 ([1]; AA 105 Val, meropenem, replicate 3): -0.049 | WT abs Fi 1 ([1]; WT (Ile 105) absolute fitness, meropenem, replicate 1): 0.125 | WT abs Fi 2 ([1]; WT (Ile 105) absolute fitness, meropenem, replicate 2): 0.070 | WT abs Fi 3 ([1]; WT (Ile 105) absolute fitness, meropenem, replicate 3): 0.109 | Fi (relative fitness), Replicate 1 ([2]; NmcA AA 105 Ala): -0.381 | Fi AVG (average fitness of replicates) ([2]; NmcA AA 105 Ala): -0.261 | Significance of average fitness ([2]; NmcA AA 105 Ala): - | Fi (relative fitness), Replicate 1 ([2]; NmcA AA 105 Arg): 0.092 | Fi AVG (average fitness of replicates) ([2]; NmcA AA 105 Arg): 0.048 | Fi (relative fitness), Replicate 1 ([2]; NmcA AA 105 Asn): 0.031 | Fi AVG (average fitness of replicates) ([2]; NmcA AA 105 Asn): 0.087 | Fi (relative fitness), Replicate 1 ([2]; NmcA AA 105 Asp): -0.205 | Fi AVG (average fitness of replicates) ([2]; NmcA AA 105 Asp): -0.182 | Significance of average fitness ([2]; NmcA AA 105 Asp): - | Fi (relative fitness), Replicate 1 ([2]; NmcA AA 105 Cys): -0.468 | Fi AVG (average fitness of replicates) ([2]; NmcA AA 105 Cys): -0.282 | Significance of average fitness ([2]; NmcA AA 105 Cys): - | Fi (relative fitness), Replicate 1 ([2]; NmcA AA 105 Gln): 0.037 | Fi AVG (average fitness of replicates) ([2]; NmcA AA 105 Gln): 0.055 | Fi (relative fitness), Replicate 1 ([2]; NmcA AA 105 Glu): -0.016 | Fi AVG (average fitness of replicates) ([2]; NmcA AA 105 Glu): -0.061 | Fi (relative fitness), Replicate 1 ([2]; NmcA AA 105 Gly): 0.015 | Fi AVG (average fitness of replicates) ([2]; NmcA AA 105 Gly): -0.027 | Fi (relative fitness), Replicate 1 ([2]; NmcA AA 105 His): 0.000 | Fi AVG (average fitness of replicates) ([2]; NmcA AA 105 His): 0.000 | Fi AVG (average fitness of replicates) ([2]; NmcA AA 105 Ile): 0.105 | Significance of average fitness ([2]; NmcA AA 105 Ile): + | Fi (relative fitness), Replicate 1 ([2]; NmcA AA 105 Leu): -0.100 | Fi AVG (average fitness of replicates) ([2]; NmcA AA 105 Leu): -0.100 | Significance of average fitness ([2]; NmcA AA 105 Leu): - | Fi (relative fitness), Replicate 1 ([2]; NmcA AA 105 Lys): -0.081 | Fi AVG (average fitness of replicates) ([2]; NmcA AA 105 Lys): -0.032 | Fi (relative fitness), Replicate 1 ([2]; NmcA AA 105 Met): -0.00142 | Fi AVG (average fitness of replicates) ([2]; NmcA AA 105 Met): 0.024 | Fi (relative fitness), Replicate 1 ([2]; NmcA AA 105 Phe): 0.169 | Fi AVG (average fitness of replicates) ([2]; NmcA AA 105 Phe): 0.140 | Significance of average fitness ([2]; NmcA AA 105 Phe): + | Fi (relative fitness), Replicate 1 ([2]; NmcA AA 105 Pro): -0.067 | Fi AVG (average fitness of replicates) ([2]; NmcA AA 105 Pro): -0.060 | Significance of average fitness ([2]; NmcA AA 105 Pro): - | Fi (relative fitness), Replicate 1 ([2]; NmcA AA 105 Ser): -0.066 | Fi AVG (average fitness of replicates) ([2]; NmcA AA 105 Ser): -0.071 | Significance of average fitness ([2]; NmcA AA 105 Ser): - | Fi (relative fitness), Replicate 1 ([2]; NmcA AA 105 Thr): -0.118 | Fi AVG (average fitness of replicates) ([2]; NmcA AA 105 Thr): -0.120 | Significance of average fitness ([2]; NmcA AA 105 Thr): - | Fi (relative fitness), Replicate 1 ([2]; NmcA AA 105 Trp): 0.105 | Fi AVG (average fitness of replicates) ([2]; NmcA AA 105 Trp): 0.078 | Fi (relative fitness), Replicate 1 ([2]; NmcA AA 105 Tyr): -0.154 | Fi AVG (average fitness of replicates) ([2]; NmcA AA 105 Tyr): -0.163 | Significance of average fitness ([2]; NmcA AA 105 Tyr): - | Fi (relative fitness), Replicate 1 ([2]; NmcA AA 105 Val): -0.043 | Fi AVG (average fitness of replicates) ([2]; NmcA AA 105 Val): -0.035 | WT abs Fi 1 (absolute fitness) ([2]; NmcA WT, replicate 1): 0.00454 | WT abs Fi 2 (absolute fitness) ([2]; NmcA WT, replicate 2): 0.092 | WT abs Fi 3 (absolute fitness) ([2]; NmcA WT, replicate 3): 0.017
